The values that follow are results of earlier work, collected in PMC10318822, “Phase 1 dose-escalation study to evaluate the safety, tolerability, pharmacokinetics, and anti-tumor activity of FCN-159 in adults with neurofibromatosis type 1-related unresectable plexiform neurofibromas” (BMC Medicine, 2023).

Read-outs that look alike come from different tables or passages of the source.

For series [1], the system named is NF1-related PN. Set-up: method as in PMID 33507822. As to conditions: adult patients with NF1 and progressive PN, 2 mg/m^2 twice daily, n = 8/19; cited from earlier work.
Series [2] deals with patients. Set-up: method as in PMID 20215549. As to conditions: cited from earlier work.
For series [3] the following is noted: cited from earlier work; for RP2D: twice daily.
Series [4] concerns NF1-related PN. The note with it: cited from earlier work.
For series [5], the system named is patients. As to conditions: in vivo; cited from earlier work.

`O=C(NOC[C@H](O)CO)c1ccc(F)c(F)c1Nc1ccc(I)cc1F` [mirdametinib]: in the series on NF1-related PN [1], the Response rate is on record as 42%. Besides, in the series on patients [2], the Blurred vision was 10.6%, the Patients with rash is given as 78.8% and the Visual disturbance is 13.6%. For the same compound, in series [3], the Terminal half-life is 4.6 to 18.0 h; the “Terminal half-life, average” value is 7.8 h; the RP2D is recorded as 2 mg/m^2.
With `Cn1cnc2c(F)c(Nc3ccc(Br)cc3Cl)c(C(=O)NOCCO)cc21` [selumetinib], the “Partial responses (PRs)” value in the series on NF1-related PN [4] (interim results, phase II study in adults (NCT02407405), n = 16/23) was 69%. Moreover, in the series with NF1-related PN [4] (pediatric patients with NF1-related PN), the Response rate was 40–70%. Also, in the series on NF1-related PN [4] (phase I study, children, 20–30 mg/m^2 twice daily, n = 17/24), the “Partial responses (PRs)” value is reported as 71%. For the same compound, the “Partial responses (PRs)” value with NF1-related PN [4] (phase II trial, n = 34/50) is on record as 68%. For the same compound, in the series with patients [5], the “Patients reporting AEs of CTCAE grade 3 or above” value was “up to 71.4%”, the “Patients with acneiform dermatitis” value is 62.5% and the “Visual function AEs” value is reported as 17.9%. For the same compound, in series [3], the “Dose proportionality of plasma concentration increase” value is on record as “less than dose-proportional”, the Terminal half-life is 6.0 to 6.9 h and the RP2D is reported as 25 mg/m^2. In series [3] (human, in vivo), the “Time to Cmax” value was 1.00 to 1.10 h.
